One test deals with MOLM14. The test can be described thus: Proliferation assay (spheroid assay) MOLM14. Type of test: cell-based, human. Conditions: Homo sapiens, MOLM-14, MOLM14; averaged values over all measurements; read-out: Spheroid assay MOLM14 (IC50). How it is done:
(§1) The anti-proliferative effect of menin/MLL protein/protein interaction inhibitor test compounds was assessed in human leukemia cell lines. The cell lines MV-4-11 and MOLM14 harbor MLL translocations and express the MLL fusion proteins MLL-AF4 and MLL-AF9, respectively, as well as the wildtype protein from the second allele. […] K562 and KG1 were used as a control cell lines containing two MLL wildtype alleles in order to exclude compounds that display general cytotoxic effects.
(§2) MV-4-11 and MOLM14 were cultured in RPMI-1640 (Sigma Aldrich) supplemented with 10% fetal bovine serum (HyClone), 2 mM L-glutamine (Sigma Aldrich) and 50 μg/ml gentamycin (Gibco). K562 were propagated in RPMI-1640 (Sigma Aldrich) supplemented with 20% fetal bovine serum (HyClone), 2 mM L-glutamine (Sigma Aldrich) and 50 μg/ml gentamycin (Gibco). KG1 were cultured in Iscove's MDM (Gibco) supplemented with 20% fetal bovine serum (HyClone), 2 mM L-glutamine (Sigma Aldrich) and 50 μg/ml gentamycin (Gibco).
(§3) In order to assess the anti-proliferative effects, 1,500 MV-4-11, 300 MOLM14, 750 K562 or 1,300 KG1 cells were seeded in 200 μl media per well in 96-well round bottom, ultra-low attachment plates (Costar, catalogue number 7007). Cell seeding numbers were chosen based on growth curves to ensure linear growth throughout the experiment. Test compounds were added at different concentrations and the DMSO content was normalized to 0.3%. Cells were incubated for 8 d at 37° C. and 5% CO2. Spheroid like growth was monitored in real-time by live-cell imaging (IncuCyteZOOM, Essenbio, 4× objective) acquiring one image every four hours for 8 d. Confluence (%) as a measure of spheroid size was determined using an integrated analysis tool.
(§4) In order to determine the cumulative effect of the test compounds over time, the area under the curve (AUC) in a plot of confluence against time was calculated. Confluence at the beginning of the experiment (t=0) was used as baseline for the AUC calculation.
(§5) Absolute IC50 values were calculated according to the following procedure: % Control=(AUC sample/AUC control)*100
(§6) AUC control=mean AUC of control values (cells without compound/DMSO as vehicle control)
(§7) A non-linear curve fit was applied using the least squares (ordinary) fit method to the plot of % control versus compound concentration. Based on this, the absolute IC50 value (half maximal inhibitory concentration of the test compound causing an anti-proliferative effect of 50% relative to the vehicle control) was calculated.

In test [1] the target is T1, Menin/MLL (menin, FITC-MBM1 peptide) (Homo sapiens, UniProt O00255, T541A).
T1 construct: 6xHis (C)
T1 sequence (O00255 with tags, fused parts or gaps T541A): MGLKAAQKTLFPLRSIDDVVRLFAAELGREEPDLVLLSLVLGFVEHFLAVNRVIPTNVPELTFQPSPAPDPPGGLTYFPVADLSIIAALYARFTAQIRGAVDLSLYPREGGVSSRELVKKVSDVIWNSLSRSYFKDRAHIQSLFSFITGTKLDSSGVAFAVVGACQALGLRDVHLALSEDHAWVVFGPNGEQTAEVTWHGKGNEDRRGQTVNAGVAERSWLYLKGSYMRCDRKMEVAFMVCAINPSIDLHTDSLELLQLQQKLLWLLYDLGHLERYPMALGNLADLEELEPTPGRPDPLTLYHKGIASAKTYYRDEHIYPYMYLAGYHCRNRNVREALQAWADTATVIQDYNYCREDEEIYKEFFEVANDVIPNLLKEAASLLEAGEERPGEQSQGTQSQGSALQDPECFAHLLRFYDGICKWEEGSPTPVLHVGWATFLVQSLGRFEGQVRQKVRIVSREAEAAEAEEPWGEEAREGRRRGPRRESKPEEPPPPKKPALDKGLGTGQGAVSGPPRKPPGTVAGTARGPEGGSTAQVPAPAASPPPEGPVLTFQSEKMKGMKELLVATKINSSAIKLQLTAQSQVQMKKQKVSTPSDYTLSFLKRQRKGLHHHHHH
Put plainly: Menin/MLL fluorescence polarization (FP) assay. Type of test: binding. Conditions: averaged values over all measurements; read-out: Menin FP assay (IC50). The protocol:
Pharmacological Part 1) Menin/MLL Fluorescence Polarization Assay
To a non-surface binding, black 384-well microtiter plate was added 50 nL 160× test compound in DMSO and 4 μL 2× menin in assay buffer (40 mM Tris-HCl, pH 7.5, 50 mM NaCl, 1 mM DTT and 0.001% Tween 20). After incubation of test compound and menin for 10 min at ambient temperature, 4 μL 2×FITC-MBM1 peptide (FITC-β-alanine-SARWRFPARPGT-NH2) in assay buffer was added, the microtiter plate centrifuged at 1000 rpm for 1 min and the assay mixtures incubated for 15 min at ambient temperature. The relative amount of menin: FITC-MBM1 complex present in an assay mixture is determined by measuring the fluorescence polarization (FP) of the FITC label with a BMG Pherastar plate reader (ex. 485 nm/em. 520 nm) at ambient temperature. The final concentrations of reagents in the binding assay are 100 nM menin, 5 nM FITC-MBM1 peptide and 0.625% DMSO in assay buffer. Dose-response titrations of test compounds are conducted using an 11 point, three-fold serial dilution scheme, starting at 31 μM.
Compound potencies were determined by first calculating % inhibition at each compound concentration according to equation 1: % inhibition=((HC−LC)−(FP^compound−LC))/(HC−LC))*100 (Eqn 1)
Where LC and HC are the FP values of the assay in the presence or absence of a saturating concentration of a compound that competes with FITC-MBM1 for binding to menin, and FP^compound is the measured FP value in the presence of the test compound. HC and LC FP values represent an average of at least 16 replicates per plate.
Where Bottom and Top are the lower and upper asymptotes of the dose-response curve, respectively, IC50 is the concentration of compound that yields 50% inhibition of signal and h is the Hill coefficient.
For orientation: Polarisation of emitted light reports the rotation of a fluorescent probe.

A further test deals with MV-4-11. Put plainly: Proliferation assay (spheroid assay) MV-4-11. Type of test: cell-based, human. Conditions: Homo sapiens, MV4-11, MV-4-11; averaged values over all measurements; read-out: Spheroid assay MV-4-11 (IC50). How it is done: as §1, §2, §3, §4, §5, §6, §7
The target in test [2] is T2, Menin/MLL (terbium chelate-labeled menin, FITC-MBM1 peptide) (Homo sapiens, UniProt O00255, T541A).
T2 construct: Menin (a.a. 1-610-6×his tag) was labeled with terbium cryptate as follows
T2 sequence (O00255 with tags, fused parts or gaps T541A): T1 sequence (O00255 with tags, fused parts or gaps T541A)
Put plainly: Menin/MLL homogenous time-resolved fluorescence (HTRF) assay. In kind it is binding. Conditions: averaged values over all measurements; read-out: Menin HTRF assay (IC50). In a few lines:
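Compound preincubated 5 min with terbium-cryptate-labeled menin (aa 1-610, His-tagged; 100 pM final), then 75 nM FITC-MBM1 peptide added, 15 min at ambient temperature; 0.5% DMSO, Tris pH 7.5 buffer. HTRF ratio 520/490 nm; % inhibition vs saturating competitor, IC50 from 11-point three-fold titration from 31 μM.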
(Time-resolved FRET reads energy transfer from a long-lived donor to a nearby acceptor.)

In the next test the test system is KG1. Put plainly: Proliferation assay (spheroid assay) KG1 control cell line. Type of test: cell-based. Conditions: Homo sapiens, KG-1, averaged values over all measurements. The protocol: as §1, §2, §3, §4, §5, §6, §7

By IC50 is commonly meant the concentration that inhibits the measured activity by half. Take `Cn1cc(CN2CC[C@H]3CN(c4ncnc5sc(CC(F)(F)F)cc45)CC[C@H]32)cn1` (single isomer, unassigned) [Compound 9]: the IC50 in the test on MOLM14 turned out to be 10.3 µM; in test [1], 98 nM; with MV-4-11, 3500 nM; in test [2] it was 106 nM.
Taken in the same sequence, the figures for `Cc1nc(CN2CC[C@H]3CN(c4ncnc5sc(CC(F)(F)F)cc45)CC[C@H]32)cs1` (single isomer, unassigned) [Compound 12] were 9.2 µM, 430 nM, 2100 nM and 860 nM.
Taken in the same sequence, the figures for `FC(F)(F)Cc1cc2c(N3CC[C@H]4[C@H](CCN4Cc4ccc(Cl)nc4)C3)ncnc2s1` (single isomer, unassigned) [Compound 11] were above 15 µM, 590 nM, above 15000 nM and 680 nM.
Taken in the same sequence, the figures for `FC(F)(F)Cc1cc2c(N3CC[C@H]4[C@H](CCN4Cc4ccccc4)C3)ncnc2s1` (single isomer, unassigned) [Compound 4] were 12.8 µM, 230 nM, 8300 nM and 69 nM.
Consider `FC(F)(F)Cc1cc2c(N3C[C@H]4CCN(CC5CCCOC5)C[C@H]4C3)ncnc2s1` (single isomer, unassigned) [Compound 99], for which the values for the IC50 (in the test with KG1; in the test on MV-4-11; in test [2]) were above 15 µM, 240 nM and 33 nM, respectively.
The corresponding values for `CC(C)(CO)CN1CC[C@@H]2CN(c3ncnc4sc(CC(F)(F)F)cc34)C[C@@H]2C1` (single isomer, unassigned) [Compound 58] are above 15 µM, 990 nM and 63 nM.
Turning to `FC(F)(F)Cc1cc2c(N3CC[C@@H]4[C@@H](CCN4Cc4ccccc4)C3)ncnc2s1` (single isomer, unassigned) [Compound 3], the IC50 was 3.8 µM with MOLM14, 89 nM in test [1], 2000 nM in the test on MV-4-11 and 61 nM in test [2].
In the case of `FC(F)(F)Cc1cc2c(N3C[C@@H]4CN(Cc5ccccc5)[C@@H]4C3)ncnc2s1` [Compound 32], the IC50 in test [1] is 1560 nM; in test [2] it was 2780 nM.
As for `FC(F)(F)Cc1cc2c(N3C[C@H]4CCN(CC5CCCCO5)C[C@H]4C3)ncnc2s1` (single isomer, unassigned) [Compound 100], the IC50 in the test on KG1 is above 15 µM; in the test on MV-4-11 it was 930 nM; in test [2], 57 nM.
In the case of `Cn1cc(CN2CC3CN(c4ncnc5sc(CC(F)(F)F)cc45)CC3C2)cn1` (stereo not drawn) [Compound 18], the IC50 in the test with MOLM14 is above 15 µM; in test [1] it was 520 nM; in the test on MV-4-11, above 15000 nM; in test [2], 1130 nM.
For the compound `COc1ncccc1CN1CC[C@@H]2CN(c3ncnc4sc(CC(F)(F)F)cc34)C[C@@H]2C1` (single isomer, unassigned) [Compound 44], the IC50 in the test with KG1 is above 15 µM; with MV-4-11, 2100 nM; in test [2], 87 nM.
With `[CH3][Ge]([CH3])([CH3])[CH2]N1CCC2CN(c3ncnc4sc(CC(F)(F)F)cc34)CCC21` (stereo not drawn) [Compound 15], the values for the IC50 in test [1] and in test [2] were 130 nM and 120 nM, respectively.
Taken in the same sequence, the figures for `CC(C)CN1CC[C@@H]2CN(c3ncnc4sc(CC(F)(F)F)cc34)C[C@@H]21` (single isomer, unassigned) [Compound 28A] were 1170 nM and 1730 nM.
Take `FC(F)(F)Cc1cc2c(N3CC[C@@H]4[C@@H](CCN4Cc4ccc(Cl)nc4)C3)ncnc2s1` (single isomer, unassigned) [Compound 10]: the IC50 in the test on MOLM14 worked out at 2 µM; in test [1] it was 250 nM; in the test on MV-4-11, 4400 nM; in test [2], 118 nM.
With `FC(F)(F)Cc1cc2c(N3CCC4C(CCN4Cc4cc[nH]n4)C3)ncnc2s1` (stereo not drawn) [Compound 84], the IC50 in test [1] was 1020 nM; in test [2] it was 906 nM.
Taken in the same sequence, the figures for `Cn1cc(CN2CC[C@H]3CN(c4ncnc5sc(CC(F)(F)F)cc45)C[C@H]32)cn1` [Compound 27B] were 3650 nM and 8990 nM.
For the compound `OCCn1cccc1CN1CCC2CN(c3ncnc4sc(CC(F)(F)F)cc34)CCC21` (stereo not drawn) [Compound 23], the IC50 came to 4.3 µM in the test on MOLM14, 220 nM in test [1], 1700 nM in the test with MV-4-11 and 366 nM in test [2].
With `FC(F)(F)Cc1cc2c(N3C[C@H]4CCN(CC5CCOC5)C[C@H]4C3)ncnc2s1` (single isomer, unassigned) [Compound 101], the IC50 was above 15 µM with KG1, 410 nM with MV-4-11 and 28 nM in test [2].
As for `Cn1ccnc1CN1CCC2CN(c3ncnc4sc(CC(F)(F)F)cc34)CCC21` (stereo not drawn) [Compound 19], the IC50 in test [1] was 1770 nM; in test [2] it was 4570 nM.
As to `Cn1cc(CN2CCC3CN(c4ncnc5sc(CC(F)(F)F)cc45)CC3C2)cn1` (stereo not drawn) [Compound 71], the IC50 in the test on MOLM14 turned out to be 6.7 µM; in test [1], 88 nM; with MV-4-11, 840 nM; in test [2], 70 nM.
Turning to `Cn1cc(CN2CC[C@@H]3CN(c4ncnc5sc(CC(F)(F)F)cc45)CC[C@@H]32)cn1` (single isomer, unassigned) [Compound 13], the concentration for half-maximal inhibition (IC50) is above 15 µM with MOLM14, 520 nM in test [1] and 13700 nM with MV-4-11.
